Experimental data published in patent publication US20250325684A1, “POTENT ANTI-CANCER CYCLOTIDES” (University of Southern California, priority 2022, published 2025).
Like-named read-outs stand apart in the source and are kept apart here. Numbered stars: 1 amine (or outer) side, 2 acyl side, 3 side chain; on linkers, the order of the positions; unused ones are H or OH. Bridge positions count the residues as written; N and C are the ends. Square brackets hold non-standard residues; d marks the D form. Peptide text beside a SMILES is read from it. I, II: the chains in the order shown. X1 = O=C(CCc1cn(CCOCCOCCOCCC(=O)[*:2])nn1)[*:1]; isoGln = NC(=O)[C@H](CCC(=O)[*:2])N[*:1]

Tests used:
MOLM-13 = experiment: MTT cell viability, MOLM-13 cells; format: cell-based, human; conditions: MOLM-13 adult acute myeloid leukemia, p53 WT
Experimental: (§1) Cell viability assay in several human cancer cell lines (See Tables 1 to 10). Cell lines were cultured in RPMI 1640 (or recommended medium when indicated) medium supplemented with 10% fetal calf serum, penicillin (50 IU/mL) and streptomycin ([…]) at 37° C. in 5% CO2. Cell viability studies was carried using the MTT (3-(4,5-dimethylthiazol-2-yl)-2,5-diphenyltetrazolium bromide) assay as previously described (31). Briefly, ≈2×10^3 CRC cells were be seeded in 96-well microtiter plates in 100 μL RPMI 1640 in the presence of 10% calf serum. […] After 1 h, 210 μL/well of full complemented media was added, the cells were grown for 48 h and then treated with 20 μL of a solution of MTT (5 mg/mL) for 2 h. The medium was discarded and DMSO ([…]) was added to each well and incubated with gentle shaking for 20 min at room temperature. The absorbance at 595 nm of the solution is analyzed using a Tecan Genios Multifunctional Microplate Reader (Tecan System Inc) and the background at 670 nm subtracted. RNA-Seq analysis was performed using state-of-the-art bioinformatics tools. Briefly, raw RNA-Seq reads were mapped to human genome (hg38) using STAR aligner (v2.7.3a). Gencode Release 36 reference was used for annotation. Transcript and gene expression levels were quantified using the IsoEM (37) with default parameters. Counts per million (CPM) method is used for normalization. Differential expression was done using DESeq2 with default parameters. Genes involved in different biological pathways (human) were searched from Geneontology (http://geneontology.org/). Bioinformatics results can be validated by using Partek Flow (v10.0.21.0912), a bioinformatics pipeline developed by Zymo Research (https://www.zymoresearch.com/).
(§2) Cell viability was evaluated using the MTT assay as described above.

NCl-H292 = experiment: MTT cell viability, NCl-H292 cells; format: cell-based, human; conditions: NCl-H292 lung mucoepidermoid carcinoma, p53 WT
Experimental: as §1, with “Counts per million (CPM) method is used for normalization. Differential expression was done using DESeq2 with default parameters. Genes involved in different biological pathways (human) were searched from Geneontology (http://geneontology.org/). Bioinformatics results can be validated by using Partek Flow (v10.0.21.0912), a bioinformatics pipeline developed by Zymo Research (https://www.zymoresearch.com/).” left out
as §2

HCT116^+/+ = experiment: MTT cell viability, HCT116 p53 wild-type cells; format: cell-based, human; conditions: HCT116^+/+ colon carcinoma, p53 WT; MTT; read-out: EC50
Experimental: as §1, §2

PANC-1 = experiment: MTT cell viability, PANC-1 cells; format: cell-based, human; conditions: PANC-1 pancreatic ductal adenocarcinoma, p53 Mutant
Experimental: as §1, §2

NCl-H522 = experiment: MTT cell viability, NCl-H522 cells; format: cell-based, human; conditions: NCl-H522 lung adenocarcinoma, p53 Mutant (Deletion)
Experimental: as §1, §2

NCl-H2347 = experiment: MTT cell viability, NCl-H2347 cells; format: cell-based, human; conditions: NCl-H2347 lung adenocarcinoma, p53 Mutant
Experimental: as §1, with “Counts per million (CPM) method is used for normalization. Differential expression was done using DESeq2 with default parameters. Genes involved in different biological pathways (human) were searched from Geneontology (http://geneontology.org/). Bioinformatics results can be validated by using Partek Flow (v10.0.21.0912), a bioinformatics pipeline developed by Zymo Research (https://www.zymoresearch.com/).” left out
as §2

U937 = experiment: MTT cell viability, U937 cells; format: cell-based, human; conditions: U937 adult acute monocytic leukemia, p53 Mutant
Experimental: as §1, §2

NCl-A549 = experiment: MTT cell viability, NCl-A549 cells; format: cell-based, human; conditions: NCl-A549 lung adenocarcinoma, p53 WT
Experimental: as §1, §2

SW626 = experiment: MTT cell viability, SW626 cells; format: cell-based, human; conditions: p53 Mutant
Experimental: as §1, §2

DLD-1 = experiment: MTT cell viability, DLD-1 cells; format: cell-based, human; conditions: DLD-1 colon adenocarcinoma, p53 Mutant
Experimental: as §1, with “Counts per million (CPM) method is used for normalization. Differential expression was done using DESeq2 with default parameters. Genes involved in different biological pathways (human) were searched from Geneontology (http://geneontology.org/). Bioinformatics results can be validated by using Partek Flow (v10.0.21.0912), a bioinformatics pipeline developed by Zymo Research (https://www.zymoresearch.com/).” left out
as §2

NCl-H526 = experiment: MTT cell viability, NCl-H526 cells; format: cell-based, human; conditions: NCl-H526 lung small cell carcinoma, p53 Null
Experimental: as §1, §2

MSCLC 494 = experiment: MTT cell viability, MSCLC 494 cells; format: cell-based; conditions: MSCLC 494 murine small cell lung cancer
Experimental: as §1, §2

NCl-H69 = experiment: MTT cell viability, NCl-H69 cells; format: cell-based, human; conditions: NCl-H69 lung small cell carcinoma, p53 Mutant
Experimental: as §1, §2

NCl-H1299 = experiment: MTT cell viability, NCl-H1299 cells; format: cell-based, human; conditions: NCl-H1299 lung large cell carcinoma, p53 Null
Experimental: as §1, §2

CT26 = experiment: MTT cell viability, CT26 cells; format: cell-based; conditions: CT26 murine colon cancer, p53 WT
Experimental: as §1, with “Counts per million (CPM) method is used for normalization. Differential expression was done using DESeq2 with default parameters. Genes involved in different biological pathways (human) were searched from Geneontology (http://geneontology.org/). Bioinformatics results can be validated by using Partek Flow (v10.0.21.0912), a bioinformatics pipeline developed by Zymo Research (https://www.zymoresearch.com/).” left out
as §2

NCl-H1395 = experiment: MTT cell viability, NCl-H1395 cells; format: cell-based, human; conditions: NCl-H1395 lung adenocarcinoma, p53 WT
Experimental: as §1, with “Counts per million (CPM) method is used for normalization. Differential expression was done using DESeq2 with default parameters. Genes involved in different biological pathways (human) were searched from Geneontology (http://geneontology.org/). Bioinformatics results can be validated by using Partek Flow (v10.0.21.0912), a bioinformatics pipeline developed by Zymo Research (https://www.zymoresearch.com/).” left out
as §2

NCl-H1975 = experiment: MTT cell viability, NCl-H1975 cells; format: cell-based, human; conditions: NCl-H1975 lung adenocarcinoma, p53 Mutant
Experimental: as §1, with “Counts per million (CPM) method is used for normalization. Differential expression was done using DESeq2 with default parameters. Genes involved in different biological pathways (human) were searched from Geneontology (http://geneontology.org/). Bioinformatics results can be validated by using Partek Flow (v10.0.21.0912), a bioinformatics pipeline developed by Zymo Research (https://www.zymoresearch.com/).” left out
as §2

MV4-11 = experiment: MTT cell viability, MV4-11 cells; format: cell-based, human; conditions: MV4-11 childhood acute monocytic leukemia, p53 WT
Experimental: as §1, §2

4T1 = experiment: MTT cell viability, 4T1 cells; format: cell-based; conditions: 4T1 murine breast cancer, p53 WT
Experimental: as §1, with “Counts per million (CPM) method is used for normalization. Differential expression was done using DESeq2 with default parameters. Genes involved in different biological pathways (human) were searched from Geneontology (http://geneontology.org/). Bioinformatics results can be validated by using Partek Flow (v10.0.21.0912), a bioinformatics pipeline developed by Zymo Research (https://www.zymoresearch.com/).” left out
as §2

LLC-1 = experiment: MTT cell viability, LLC-1 cells; format: cell-based; conditions: LLC-1 murine lung cancer, p53 WT
Experimental: as §1, with “Counts per million (CPM) method is used for normalization. Differential expression was done using DESeq2 with default parameters. Genes involved in different biological pathways (human) were searched from Geneontology (http://geneontology.org/). Bioinformatics results can be validated by using Partek Flow (v10.0.21.0912), a bioinformatics pipeline developed by Zymo Research (https://www.zymoresearch.com/).” left out
as §2

NCl-H1944 = experiment: MTT cell viability, NCl-H1944 cells; format: cell-based, human; conditions: NCl-H1944 lung adenocarcinoma, p53 WT
Experimental: as §1, with “Counts per million (CPM) method is used for normalization. Differential expression was done using DESeq2 with default parameters. Genes involved in different biological pathways (human) were searched from Geneontology (http://geneontology.org/). Bioinformatics results can be validated by using Partek Flow (v10.0.21.0912), a bioinformatics pipeline developed by Zymo Research (https://www.zymoresearch.com/).” left out
as §2

HL-60 = experiment: MTT cell viability, HL-60 cells; format: cell-based, human; conditions: HL-60 adult acute myeloid leukemia, p53 Null
Experimental: as §1, with “Counts per million (CPM) method is used for normalization. Differential expression was done using DESeq2 with default parameters. Genes involved in different biological pathways (human) were searched from Geneontology (http://geneontology.org/). Bioinformatics results can be validated by using Partek Flow (v10.0.21.0912), a bioinformatics pipeline developed by Zymo Research (https://www.zymoresearch.com/).” left out
as §2

NCl-H23 = experiment: MTT cell viability, NCl-H23 cells; format: cell-based, human; conditions: NCl-H23 lung adenocarcinoma, p53 Mutant
Experimental: as §1, §2

Capan-1 = experiment: MTT cell viability, Capan-1 cells; format: cell-based, human; conditions: Capan-1 pancreatic ductal adenocarcinoma, p53 Mutant
Experimental: as §1, §2

Jurkat = experiment: MTT cell viability, Jurkat cells; format: cell-based, human; conditions: Jurkat childhood T acute lymphoblastic leukemia, p53 Mutant
Experimental: as §1, §2

[1] = SW626 colon adenocarcinoma metastatic site: Ovary, MTT (Table 1), read-out: EC50
[2] = SW626 ovarian cells, MTT (Table 7), read-out: Cell Viability Assay

| Compound | EC50 (MOLM-13) [µM] | EC50 (NCl-H292) [µM] | EC50 (HCT116^+/+) [µM] | EC50 (PANC-1) [µM] | EC50 (NCl-H522) [µM] | EC50 (NCl-H2347) [µM] | EC50 (U937) [µM] | EC50 (NCl-A549) [µM] | EC50 (SW626; [1]) [µM] | EC50 (SW626; [2]) [µM] | EC50 (DLD-1) [µM] | EC50 (NCl-H526) [µM] | EC50 (MSCLC 494) [µM] | EC50 (NCl-H69) [µM] | EC50 (NCl-H1299) [µM] | EC50 (CT26) [µM] | EC50 (NCl-H1395) [µM] | EC50 (NCl-H1975) [µM] | EC50 (MV4-11) [µM] | EC50 (Capan-1) [µM] | further results |
| --- | --- | --- | --- | --- | --- | --- | --- | --- | --- | --- | --- | --- | --- | --- | --- | --- | --- | --- | --- | --- | --- |
| N=C(N)NCCC[C@@H]1NC(=O)[C@@H](CCCNC(=N)N)NC(=O)[C@H](CCCCN)NC(=O)[C@@H](N)CCCCNC(=O)CC[C@@H](C(=O)O)NC(=O)[C@@H](CCCNC(=N)N)NC(=O)[C@H](CCCNC(=N)N)NC(=O)[C@@H](CCCCN)NC(=O)[C@H](CCCCN)NC(=O)[C@@H](CCCNC(=N)N)NC(=O)CNC(=O)[C@@H](CCCNC(=N)N)NC1=O [cTAT] (H-KK[dR]R[dR]G[dR]K[dK]R[dR]E-OH; lactam 1-12; N-terminus and C-terminus assumed) | > 100 | > 100 | > 100 | > 100 | > 100 | > 100 | > 100 | > 100 | > 100 | > 100 | > 100 | > 100 | > 100 | > 100 | > 100 | > 100 | > 100 | > 100 | > 100 | > 100 | EC50 (4T1): > 100 µM; EC50 (LLC-1): > 100 µM; EC50 (NCl-H1944): > 100 µM; EC50 (HL-60): > 100 µM; EC50 (NCl-H23): > 100 µM; EC50 (Jurkat): > 100 µM |
| COc1ccc(C2=N[C@@H](c3ccc(Cl)cc3)[C@@H](c3ccc(Cl)cc3)N2C(=O)N2CCNC(=O)C2)c(OC(C)C)c1 [Nutlin 3A] | 1.4 ± 0.1 | 19.2 ± 2.9 |  | 41.9 ± 6.9 | > 50 | 25.3 ± 5.5 | > 50 | 6.6 ± 0.7 | > 100 | 50.3 ± 0.2 | > 100 | > 100 | > 100 | > 50 | > 100 | 9.8 ± 1.2 | 23.1 ± 5.6 | > 100 | 0.7 ± 0.1 | > 100 | EC50 (4T1): 28.5 ± 8.6 µM; EC50 (LLC-1): 9.4 ± 1.2 µM; EC50 (NCl-H1944): 22.1 µM; EC50 (HL-60): 33.3 ± 4.4 µM; EC50 (NCl-H23): > 50 µM; EC50 (Jurkat): 45.2 ± 2.4 µM |
| I: cyclo(ACICRHDSYCGSGSDGGVCPNLYLLCRRDKDCPG) / II: KK[dR]R[dR]G[dR]K[dK]R[dR][isoGln] (disulfide I:2-I:19, I:4-I:26, I:10-I:32; linker I:30-II:N via X1; lactam II:1-II:C) [Cyclotide 52-2-cTAT] |  |  | 10.9 ± 1.3 | 20.5 ± 2.5 |  |  |  |  |  | 27.5 ± 0.7 |  |  |  |  |  |  |  |  |  | 3.3 ± 0.3 |  |
